Reference: article PMC11124387, “A Reliable Multifaceted Solution against Foodborne Viral Infections: The Case of RiLK1 Decapeptide” (Molecules, 2024)
Several values for one entry are separate records, joined by “and”; a condition that tells them apart may be missing. Equal entries are not always repeated. Where two headings read alike, the source gives them in different places. Where a SMILES comes first, the peptide text is derived from it.

Columns and labels:
[1] = tested on: Hepatitis A virus (HAV) strain HM-175; assay: Virucidal effect of peptides on HAV (residual infectivity by TCID50 titration on Frp3 cells); type: cell-based; conditions: for Viral Titre after Treatment: titration on Frp3 cells; for Viral Titre after Treatment / LRV (log reduction value): mean ± SD, triplicate
Source text: (§1) Murine norovirus strain 1 (MNV-1) was used as a surrogate for human norovirus (NoV). The virus was replicated in RAW 264.7 cells (murine macrophage cell line) cultured in Dulbecco’s modified Eagle’s medium (DMEM) supplemented with 1% glutamine, 1% non-essential amino acids, and 2% fetal bovine serum (FBS). Hepatitis A virus (HAV) strain HM-175 was replicated in Frp3 cells (non-human primate cell line derived from fetal kidney) cultured in minimum essential medium (MEM) with Earle’s salts supplemented with 1% glutamine, 2% non-essential amino acids, and 2% FBS. Both viruses were incubated in 5% CO2 at 37 °C. All cell culture media were provided by EuroClone (Milan, Italy). The viral suspensions were prepared by freeze and thaw lysis (1 cycle for MNV-1 and 3 cycles for HAV) of infected monolayers, clarified using low-speed centrifugation (800× g) to remove residual cell debris, then divided in aliquots, and stored at −80 °C until use.
(§2) Solutions 40 µM and 80 µM of each peptide of the panel (RiLK1, RiLK3, RiLK30, 1018-K6, MTP1, and AVP2) were chosen for the virucidal tests. HAV and MNV-1 were assayed at a concentration of 4.7 ± 0.2 log TCID50/mL and 4.5 ± 0.2 log TCID50/mL, respectively. The suspensions containing the peptides and viruses were incubated for 1 h at room temperature (RT,20 ± 2 °C) and 4 °C. These temperatures were chosen to simulate the use of sanitizing solutions in food production/processing environments. Residual viral infectivity was evaluated by titration (TCID50/mL) on Frp3 cells for HAV and on RAW 264.7 cells for MNV-1. Untreated HAV and MNV-1 suspensions and 40 µM and 80 µM AMP solutions, incubated at the same conditions, were used as controls. Each treatment condition was assayed in triplicate. For titration, 100 µL of serial tenfold dilutions of each sample were assayed in 24-well tissue culture plates containing 24–48 h cell monolayers and incubated for 1 h in 5% CO2 at 37 °C. After that, the wells were washed twice with 200 µL of PBS, and 500 µL of DMEM/MEM, supplemented with 2% of FBS, were was added to each well; MNV-1 and HAV incubations were carried for up to 6 days and 14 days, respectively, in 5% CO2 at 37 °C with daily visual inspection to determine the cytopathic effect. The virucidal efficacy of AMPs was estimated by comparing the titers of treated and untreated viral suspensions.
(§3) For each treatment, the average and standard deviation of the triplicate analyses were calculated. The virucidal effects of AMPs was assessed by calculating the log reduction value (LRV), i.e., the difference between the infectious titer (log-transformed) of untreated versus treated samples. The statistical significance of differences between treated and untreated samples was determined through one-way analysis of variance (ANOVA) with Bonferroni post hoc comparisons, with a significance level of p < 0.05 (GraphPad Prism v9.5.0, software San Diego, CA, USA).

[2] = pH 2; cited from earlier work
Method: In this context, to acquire important information on how the conformational properties of peptides might influence the structure–function relationships and their distinct membrane interaction profiles, the propensity of the new peptides, RiLK30 and AVP2, to adopt a defined secondary structure and to undergo conformational changes were examined by circular dichroism and fluorescence spectroscopy. These analyses were performed in the presence of a negatively charged SDS that is commonly used as a biomimetic membrane model to study the structural features of membranotropic molecules. In previous ...

[3] = tested on: Murine norovirus strain 1 (MNV-1); type: cell-based; conditions: for Viral Titre after Treatment: titration on RAW 264.7 cells; for Viral Titre after Treatment / LRV (log reduction value): mean ± SD, triplicate
Source text: as §1, §2, §3

[4] = type: physicochemical
Method: Circular Dichroism (CD) analysis was performed by a Jasco J-810 spectropolarimeter. The samples were loaded into a quartz cuvette of 0.1 cm path length (Hellma Analytics), and the spectra were recorded in the 195–250 nm range at a scan speed of 20 nm/min, averaging 5 scans. CD experiments were carried out in 10 mM Tris-HCl buffer, pH 7.0, as a function of SDS concentrations (3, 50, and 150 mM) at a peptide concentration of 50 µM. The folding kinetic measurements of the peptides were performed after the addition of SDS (50 mM) to each sample (50 µM in 10 mM Tris-HCl, pH 7.0) up to 24 h of incubation. For thermal stability analyses, the peptides were prepared to a final concentration of 50 μM in 10 mM Tris-HCl, pH 7.0, and then they were incubated at 4 and 25 °C up to 48 h before acquiring the CD spectra in the presence of 50 mM SDS. A blank spectrum of a sample containing all components except the peptide was acquired for the baseline correction of the CD spectra of the peptide. The mean residue ellipticity ([θ], deg cm^2 dmol^−1) was obtained by the equation [θ] = 100 θ/cnl, where θ is the ellipticity (mdeg), c is the peptide concentration (mM), n is the number of residues, and l is the path length (cm).
Tryptophan (Trp) fluorescence emission spectra were recorded at 25 °C on a Shimadzu RF-6000 spectrofluorometer (Kyoto, Japan), with both excitation and emission slit widths set at 5 nm. The intrinsic Trp was excited at a wavelength of 280 nm and the emission was monitored between 300 and 400 nm. Fluorescence measurements were carried out in 10 mM Tris-HCl buffer, pH 7.0, as a function of SDS concentrations (3, 50, and 150 mM) at a peptide concentration of 50 µM. The folding kinetic experiments of AVP2 and RiLK30 were performed after the addition of SDS (50 mM) to each sample (50 µM concentration in 10 mM Tris-HCl buffer, pH 7.0) up to 24 h of incubation. The effect of temperature on peptide folding was analyzed by dissolving the peptides at a final concentration of 50 µM in 10 mM Tris-HCl buffer, pH 7.0, and incubating them at 4 and 25 °C up to 48 h. The spectra were recorded in the presence of 50 mM SDS.

[5] = HAV 4.7 ± 0.2 log TCID50/mL + peptide 80 µM, 1 h at 4 °C
[6] = HAV + peptide 40 µM, 1 h at 4 °C
[7] = HAV + peptide 40 µM, 1 h at 4 °C, untreated minus treated titre
[8] = HAV + peptide 40 µM, 1 h at RT (20 ± 2 °C)
[9] = HAV + peptide 80 µM, 1 h at 4 °C, untreated minus treated titre
[10] = HAV + peptide 80 µM, 1 h at RT (20 ± 2 °C)
[11] = maximum reduction, corresponding to the highest LRV
[12] = MNV-1 4.5 ± 0.2 log TCID50/mL + peptide 80 µM, 1 h at 4 °C
[13] = MNV-1 + peptide 40 µM, 1 h at 4 °C
[14] = MNV-1 + peptide 40 µM, 1 h at RT (20 ± 2 °C)
[15] = MNV-1 + peptide 80 µM, 1 h at 4 °C
[16] = MNV-1 + peptide 80 µM, 1 h at RT (20 ± 2 °C)

Structure (SMILES) | Viral Titre after Treatment [1, 5] | Viral Titre after Treatment [1, 6] | LRV (log reduction value) [1, 7] | LRV (log reduction value) [1, 8] | Viral Titre after Treatment [1, 8] | LRV (log reduction value) [1, 9] | LRV (log reduction value) [1, 10] | Viral Titre after Treatment [1, 10] | Viral Titre after Treatment [3, 12] | LRV (log reduction value) [3, 13] | Viral Titre after Treatment [3, 13] | LRV (log reduction value) [3, 14] | Viral Titre after Treatment [3, 14] | LRV (log reduction value) [3, 15] | LRV (log reduction value) [3, 16] | Viral Titre after Treatment [3, 16] | further results
CC[C@H](C)[C@H](NC(=O)[C@H](CCCNC(=N)N)NC(=O)[C@@H](NC(=O)[C@H](CCCCN)NC(=O)[C@@H](NC(=O)[C@@H](NC(=O)[C@H](CC(C)C)NC(=O)[C@H](CCCNC(=N)N)NC(=O)[C@@H](N)C(C)C)[C@@H](C)CC)C(C)C)C(C)C)C(=O)N[C@@H](Cc1c[nH]c2ccccc12)C(=O)N[C@@H](CCCNC(=N)N)C(=O)N[C@@H](CCCNC(=N)N)C(N)=O [1018-K6] (H-VRLIVKVRIWRR-NH2; N-terminus assumed) | 3.3 ± 0.2 logTCID50/mL | 3.4 ± 0.1 logTCID50/mL | 1.3 ± 0.3 logTCID50/mL | 1.4 ± 0.4 logTCID50/mL | 3.3 ± 0.2 logTCID50/mL | 1.4 ± 0.4 logTCID50/mL | 1.4 ± 0.4 logTCID50/mL | 3.3 ± 0.2 logTCID50/mL | 4.3 ± 0.2 logTCID50/mL | 0 ± 0.3 logTCID50/mL | 4.5 ± 0.1 logTCID50/mL | 0 ± 0.4 logTCID50/mL | 4.5 ± 0.2 logTCID50/mL | 0.2 ± 0.4 logTCID50/mL | 0.2 ± 0.4 logTCID50/mL | 4.3 ± 0.2 logTCID50/mL | decrease of HAV infectious titer [1, 11]: up to 96.7%; infectivity reduction on HAV ([1]; text summary over 40 µM and 80 µM and the two temperatures (4 °C, RT)): 1.3–1.4 log; structural stability [2]: high structural stability; virucidal activity toward MNV-1 (in words) ([3]; 40 and 80 µM, 4 °C and RT): no significant effects
CC[C@H](C)[C@H](NC(=O)[C@H](Cc1cnc[nH]1)NC(=O)[C@H](CCCCN)NC(=O)[C@@H](NC(=O)[C@@H](NC(=O)[C@H](CC(=O)O)NC(=O)[C@H](Cc1ccccc1)NC(=O)[C@H](Cc1c[nH]c2ccccc12)NC(=O)CN)C(C)C)C(C)C)C(=O)N[C@@H](C)C(=O)N[C@@H](CCCCN)C(=O)N[C@@H](CCCNC(=N)N)C(=O)N[C@@H](Cc1ccccc1)C(N)=O [AVP2, reference compound] (H-GWFDVVKHIAKRF-NH2) |  |  |  |  |  |  |  |  |  |  |  |  |  |  |  |  | thermal (conformational) stability in SDS micellar solution ([4]; pH 7): at least 48 h
CC[C@H](C)[C@H](NC(=O)[C@H](Cc1c[nH]cn1)NC(=O)[C@H](CCCCN)NC(=O)[C@@H](NC(=O)[C@@H](NC(=O)[C@H](CC(=O)O)NC(=O)[C@H](Cc1ccccc1)NC(=O)[C@H](Cc1c[nH]c2ccccc12)NC(=O)CN)C(C)C)C(C)C)C(=O)N[C@@H](C)C(=O)N[C@@H](CCCCN)C(=O)N[C@@H](CCCNC(=N)N)C(=O)N[C@@H](Cc1ccccc1)C(N)=O [AVP2, reference compound] (H-GWFDVVKHIAKRF-NH2; N-terminus assumed) | 4.3 ± 0.2 logTCID50/mL | 4.3 ± 0.2 logTCID50/mL | 0.4 ± 0.4 logTCID50/mL | 0.4 ± 0.4 logTCID50/mL | 4.3 ± 0.2 logTCID50/mL | 0.4 ± 0.4 logTCID50/mL | 0.7 ± 0.5 logTCID50/mL | 4.0 ± 0.3 logTCID50/mL | 3.6 ± 0.1 logTCID50/mL | 0.9 ± 0.3 logTCID50/mL | 3.6 ± 0.1 logTCID50/mL | 0.9 ± 0.3 logTCID50/mL | 3.6 ± 0.1 logTCID50/mL | 0.9 ± 0.3 logTCID50/mL | 1.0 ± 0.3 logTCID50/mL | 3.5 ± 0.1 logTCID50/mL | conformational rearrangement over time (CD and fluorescence spectra) ([4]; peptide 50 µM, 10 mM Tris-HCl pH 7.0, SDS 50 mM, 24 h incubation at 37 °C (legend: 25 °C)): did not appear to undergo significant changes; virucidal activity toward HAV (in words) ([1]; 40 and 80 µM, 4 °C and RT): limited reduction in infectivity; LRV against MNV-1 ([3]; at both temperatures (4 °C, RT)): 0.9 log and 1.0 log; reduction of MNV-1 infectivity [3, 11]: up to 91.3%
